Results on 54 compounds are retold here after ChEMBL document CHEMBL1156885, “Structure-based discovery of novel chemotypes for adenosine A(2A) receptor antagonists” (J Med Chem, 2010).

pKi: −log10 of the molar value.

The first assay deals with T1, Adenosine receptor A2a (Homo sapiens, UniProt P29274). Kind of assay: Inhibition of human adenosine 2A receptor.
T1 sequence (P29274 whole entry): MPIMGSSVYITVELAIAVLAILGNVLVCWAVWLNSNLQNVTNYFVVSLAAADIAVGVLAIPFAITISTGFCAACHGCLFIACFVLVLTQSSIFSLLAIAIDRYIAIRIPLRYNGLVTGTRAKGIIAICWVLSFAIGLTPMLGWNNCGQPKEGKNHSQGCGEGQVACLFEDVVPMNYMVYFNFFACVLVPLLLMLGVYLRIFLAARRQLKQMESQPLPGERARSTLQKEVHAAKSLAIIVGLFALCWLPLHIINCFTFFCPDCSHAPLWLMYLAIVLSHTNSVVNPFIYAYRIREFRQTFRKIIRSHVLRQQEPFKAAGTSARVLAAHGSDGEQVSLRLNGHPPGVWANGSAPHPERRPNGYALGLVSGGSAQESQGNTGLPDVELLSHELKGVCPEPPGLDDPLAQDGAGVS
`CCc1nc2sc(C(=O)c3cccc(Cl)c3)c(N)c2cc1C` showed a pKi of 5.04.
The compound `Nc1nc(SCCCCC(=O)O)c2[nH]cnc2n1` showed a pKi below 4.00.
Still for that read-out and setting: next, `CCOC(=O)c1cnc(SCC(=O)O)nc1N`: below 4.00.
Turning to `Cc1ccc(Nc2nc(N)nc(CSCCO)n2)cc1`, the pKi was 4.77.
Still for that read-out and setting: the result for `CC(Sc1nc(N)c(C(=O)Nc2ccccc2)cc1C#N)C(=O)NCc1ccccc1Cl` (stereo unspecified) reads below 4.00.
Consider `Cc1cc2oc(N)c(C=O)c(=O)c2cc1C`, for which the pKi is below 4.00.
In turn, `COc1ccc(N)c2c1C(=O)c1ccccc1C2=O` had a pKi of 6.28.
On the same count and under the same terms, next, `Cn1c(=O)cc2c3c(c(N)ccc31)C(=O)c1ccccc1-2`: 6.19; `Nc1c(C(=O)Nc2ccccc2Cl)sc2ncccc12`: below 4.00.
On the same count and under the same terms, next, `Cc1nc2ccccc2cc1C(=O)OCC(=O)c1c(N)n(C)c(=O)[nH]c1=O`: below 4.00.
Regarding `CCOC(=O)c1cnc(SCCC(N)=O)nc1N`, the pKi is below 4.00.
On the same count and under the same terms, the result for `Cc1ccc(Nc2nc(N)nc(CN3C(=O)NC4(CCCCC4)C3=O)n2)cc1` reads 5.55; that for `Nc1ccc(Cl)c2c1C(=O)c1ccccc1C2=O`, 6.60.
On the same count and under the same terms, next, `Nc1c(C(=O)Nc2ccc(Cl)cc2)sc2ncccc12`: 5.16; `Cc1ccc(Nc2nc(N)nc(CSC(C)C(=O)N3CCCCCC3)n2)cc1` (stereo unspecified): 4.48.
Still for that read-out and setting: the result for `Cc1ccccc1NC(=O)CSCc1nc(N)nc(Nc2ccccc2C)n1` reads below 4.00; that for `COC(=O)c1c(N)oc2c(-c3ccc(C)cc3)c3c(C(=O)OC)c(N)oc3cc12`, below 4.00.
In turn, `CC(=O)c1ccc(NC(=O)c2sc3nc4c(cc3c2N)CCCC4)cc1` gave a pKi below 4.00.
In turn, `Nc1c(Nc2ccccc2C(=O)O)c2ccccc2oc1=O` had a pKi below 4.00.
Still for that read-out and setting: the result for `CCCc1ccc2c(N)c(C(=O)c3ccccc3)sc2n1` reads 5.89; that for `Cc1cccc(NC2=C(N)C(=O)c3ccccc3C2=O)c1`, 6.10; that for `Nc1c(C(=O)Nc2nccs2)sc2nc3c(cc12)C(=O)CCC3`, 6.00.
Same read-out and setting: the result for `Nc1c(Oc2ccccc2)ccc2c1C(=O)c1ccccc1C2=O` reads 6.00.
The same measure, in the same setting: next, `Nc1c(C(=O)Nc2ccc([N+](=O)[O-])cc2)sc2nc3c(cc12)CCCC3`: 4.82; `Nc1cccc2c1C(=O)c1ccccc1C2=O`: 5.49.
`Cc1ccc(C(=O)CSc2nc(N)c(C#N)c(-c3cccs3)c2C#N)c(C)c1` showed a pKi below 4.00.
`Nc1c(C(=O)c2ccccc2)oc2ccc(Br)cc12` gave a pKi of 5.66.
For the compound `Nc1nc(CSc2nnc(N)s2)nc(Nc2ccc(F)cc2)n1`, the pKi is 4.89.
Same read-out and setting: next, `COc1ccc(Cl)cc1Nc1nc(N)nc(-c2oc3ccccc3c2C)n1`: 7.49.
As to `N#Cc1c(N)nc2c(oc3ccccc32)c1-c1ccccc1`, the pKi is 7.22.
Same read-out and setting: next, `COc1ccc(-n2ccnc2SCC(=O)c2c(N)n(C3CC3)c(=O)[nH]c2=O)cc1`: 4.60.
Consider `COc1ccc(Nc2nc(N)nc(CSc3nnc(N)s3)n2)cc1`, for which the pKi is 4.85.
Compound `Nc1c(C(=O)Nc2ccc(F)cc2)sc2nc3c(cc12)N1CCC3CC1` had a pKi below 4.00.
`COCCOC(=O)c1sc(N)c(C#N)c1C`: the pKi was 4.77.
The same measure, in the same setting: next, `CC(=O)c1snc(Nc2cc(Cl)ccc2F)c1N`: 4.39; `Nc1ncnc2sc3c(c12)CCN(C(=O)CN1CSCC1=O)C3`: below 4.00.
On the same count and under the same terms, next, `Cc1ccc2oc(=N)c3c(N)nc(-c4ccc5c(c4)OCO5)cc3c2c1`: below 4.00; `Nc1ccc(-c2nc3c(N)cccc3[nH]2)cc1`: below 4.00.
On the same count and under the same terms, the result for `N#CC1=C(NC(=O)CSc2ncc(C#N)c(N)n2)SC2CCCCC12` (stereo unspecified) reads 5.21; that for `CC(=O)Oc1cccc(-c2nc(C(N)=O)c(N)o2)c1`, 4.44; that for `Nc1nc(CSc2nnc3ccccn23)nc(Nc2ccc(F)cc2)n1`, below 4.00.
In the case of `Nc1c(/C=N/c2ccccc2)ccc2c1C(=O)c1ccccc1C2=O`, the pKi was below 4.00.
In turn, `Cc1ccc(Nc2nc(N)nc(CSCC(=O)NC3CC3)n2)cc1` had a negative-log Ki (pKi) below 4.00.
Still for that read-out and setting: next, `Cc1ccc(N2C(=O)c3cccc(N)c3C2=O)cc1`: 5.54.
With `N#Cc1c(N)nc2c(C(N)=O)c(Nc3ccccc3)sc2c1-c1ccccc1`, the pKi was 6.20.
Turning to `NC1=C(Nc2cccc(C(F)(F)F)c2)C(=O)c2ccccc2C1=O`, the pKi was 6.25.
On the same count and under the same terms, the result for `CN(C(=O)CSc1nc(N)nn1-c1ccccc1)c1ccccc1` reads below 4.00; that for `Nc1ccc(N)c2c1C(=O)c1ccccc1C2=O`, 6.49; that for `Cc1ccc(Nc2nc(N)nc(CSC(C)C(=O)NCc3ccccc3Cl)n2)cc1` (stereo unspecified), 5.22.
As to `Nc1ncnc2[nH]c(SCCC(=O)O)nc12`, the pKi was below 4.00.
In turn, `Nc1c(Sc2ccccc2)cc(Sc2ccccc2)c2c1C(=O)c1ccccc1C2=O` showed a pKi of 5.72.
Turning to `CCOC(=O)c1cc(-c2ccc(Br)cc2)cc2c(N)sc(Br)c12`, the pKi was below 4.00.
In turn, `CN1CCc2nc3sc(C(=O)Nc4ccc(Cl)cc4)c(N)c3cc2C1` showed a pKi of 5.57.
Still for that read-out and setting: the result for `Nc1c(C(=O)Nc2ccccc2F)sc2nc3c(cc12)C(=O)CCC3` reads 6.52.

In a further assay the target is T1, Adenosine receptor A2a. In words: Inhibition of human adenosine 2A receptor at 32 uM.
Regarding `N#Cc1c(N)nc2c(oc3ccccc32)c1-c1ccccc1`, the inhibition was 91%.

In a further assay the target is T1, Adenosine receptor A2a. In words: Inhibition of human adenosine 2A receptor at 2 uM.
`COc1ccc(Cl)cc1Nc1nc(N)nc(-c2oc3ccccc3c2C)n1`: the inhibition stood at 80%.
